Measurements as given in patent US9902702B2, “Spirocycloheptanes as inhibitors of rock” (BRISTOL-MYERS SQUIBB COMPANY, priority 2014, dated 2018).

biological target: ROCK2 (Homo sapiens, UniProt O75116); assay: ROCK assay: phosphorylation of FITC peptide substrate, LABCHIP 3000 mobility shift; assay type: biochemical; conditions: 5 μM ATP, 1.5 μM peptide substrate; read-out: ROCK2 Activity (ROCK IC50 range)
Outline: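 IC50 values come from curve-fitting percent kinase inhibition across a compound dilution series. The reaction is started with Rho kinase variant in HEPES pH 7.5 buffer with MgCl2, Brij-35 and DTT, with 5 μM ATP, 1.5 μM FITC-labelled peptide and under 2% DMSO. After EDTA quench, product and substrate are separated by microfluidic mobility shift.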

ROCK2, sequence (O75116 whole entry, species assumed): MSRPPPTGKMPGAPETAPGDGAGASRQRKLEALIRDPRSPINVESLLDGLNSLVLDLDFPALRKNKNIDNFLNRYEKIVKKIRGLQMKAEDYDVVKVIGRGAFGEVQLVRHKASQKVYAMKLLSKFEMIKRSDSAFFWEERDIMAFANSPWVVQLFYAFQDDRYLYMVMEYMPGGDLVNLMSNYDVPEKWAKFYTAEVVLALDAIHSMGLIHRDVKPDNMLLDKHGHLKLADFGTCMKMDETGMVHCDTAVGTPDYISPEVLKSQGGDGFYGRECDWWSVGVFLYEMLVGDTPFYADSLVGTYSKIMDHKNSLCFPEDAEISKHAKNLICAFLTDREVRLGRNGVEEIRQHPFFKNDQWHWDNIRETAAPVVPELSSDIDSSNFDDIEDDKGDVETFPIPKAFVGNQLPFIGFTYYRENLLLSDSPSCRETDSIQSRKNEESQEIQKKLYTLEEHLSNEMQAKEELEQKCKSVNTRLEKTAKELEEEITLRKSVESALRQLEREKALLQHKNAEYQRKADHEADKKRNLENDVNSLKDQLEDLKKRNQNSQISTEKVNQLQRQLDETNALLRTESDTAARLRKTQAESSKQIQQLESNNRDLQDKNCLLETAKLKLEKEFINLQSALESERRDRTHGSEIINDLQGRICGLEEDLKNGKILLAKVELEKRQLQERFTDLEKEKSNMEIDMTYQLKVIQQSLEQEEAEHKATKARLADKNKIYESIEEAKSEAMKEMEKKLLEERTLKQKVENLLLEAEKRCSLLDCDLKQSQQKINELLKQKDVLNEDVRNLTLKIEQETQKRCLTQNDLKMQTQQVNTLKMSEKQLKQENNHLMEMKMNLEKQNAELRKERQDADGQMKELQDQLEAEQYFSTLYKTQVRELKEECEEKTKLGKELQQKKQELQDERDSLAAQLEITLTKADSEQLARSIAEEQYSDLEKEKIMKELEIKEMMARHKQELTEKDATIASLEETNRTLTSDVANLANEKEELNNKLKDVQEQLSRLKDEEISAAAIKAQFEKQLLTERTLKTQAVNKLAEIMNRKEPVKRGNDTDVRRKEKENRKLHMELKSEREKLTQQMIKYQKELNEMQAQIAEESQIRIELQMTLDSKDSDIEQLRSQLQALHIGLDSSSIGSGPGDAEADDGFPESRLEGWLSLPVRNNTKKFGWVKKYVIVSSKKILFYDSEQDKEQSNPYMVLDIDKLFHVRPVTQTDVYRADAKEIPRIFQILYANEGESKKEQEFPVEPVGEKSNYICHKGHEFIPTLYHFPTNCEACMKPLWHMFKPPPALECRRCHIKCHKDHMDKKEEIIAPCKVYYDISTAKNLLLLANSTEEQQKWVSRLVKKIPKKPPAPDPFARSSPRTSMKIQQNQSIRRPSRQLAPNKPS

Structure (SMILES) | IC50 [nM]
[H][C@]1(c2n[nH]c(=O)c3ccccc32)C[C@]2(C[C@@H](NC(=O)C3=C(OCC)C(=O)N(CC(F)(F)F)C3)C2)C1 (stereo partly drawn) [Example 355, 4-ethoxy-5-oxo-N-((aR)-6-(4-oxo-3,4-dihydrophthalazin-1-yl)spiro[3.3]heptan-2-yl)-1-(2,2,2-trifluoroethyl)-2,5-dihydro-1H-pyrrole-3-carboxamide] | 15.1 to 100
[H][C@]1(c2n[nH]c(=O)c3ccccc32)C[C@]2(C[C@@H](NC(=O)c3ccc(N(C)C)nc3)C2)C1 (stereo partly drawn) [Example 356, 6-(dimethylamino)-N-((aR)-6-(4-oxo-3,4-dihydrophthalazin-1-yl)spiro[3.3]heptan-2-yl)nicotinamide] | 15.1 to 100
[H][C@]1(c2n[nH]c(=O)c3ccccc32)C[C@]2(C[C@@H](NC(=O)c3ccc(-c4cc[nH]n4)cc3)C2)C1 (stereo partly drawn) [Example 357, N-((aR)-6-(4-oxo-3,4-dihydrophthalazin-1-yl)spiro[3.3]heptan-2-yl)-4-(1H-pyrazol-3-yl)benzamide] | 15.1 to 100
[H][C@]1(c2n[nH]c(=O)c3ccccc32)C[C@]2(C[C@@H](NC(=O)c3ccc(-c4cnco4)cc3)C2)C1 (stereo partly drawn) [Example 358, 4-(oxazol-5-yl)-N-((aR)-6-(4-oxo-3,4-dihydrophthalazin-1-yl)spiro[3.3]heptan-2-yl)benzamide] | 15.1 to 100
[H][C@]1(c2n[nH]c(=O)c3ccccc32)C[C@]2(C[C@@H](NC(=O)c3ccc(-n4ccnc4)cc3)C2)C1 (stereo partly drawn) [Example 359, 4-(1H-imidazol-1-yl)-N-((aR)-6-(4-oxo-3,4-dihydrophthalazin-1-yl)spiro[3.3]heptan-2-yl)benzamide] | 100 to 2100
[H][C@]1(c2n[nH]c(=O)c3ccccc32)C[C@]2(C[C@@H](NC(=O)c3ccc(-c4noc(C)n4)cc3)C2)C1 (stereo partly drawn) [Example 360, 4-(5-methyl-1,2,4-oxadiazol-3-yl)-N-((aR)-6-(4-oxo-3,4-dihydrophthalazin-1-yl)spiro[3.3]heptan-2-yl)benzamide] | 15.1 to 100
[H][C@]1(c2n[nH]c(=O)c3ccccc32)C[C@]2(C[C@@H](NC(=O)c3cccc(-c4cc[nH]n4)c3)C2)C1 (stereo partly drawn) [Example 361, N-((aR)-6-(4-oxo-3,4-dihydrophthalazin-1-yl)spiro[3.3]heptan-2-yl)-3-(1H-pyrazol-3-yl)benzamide] | 5.1 to 15
[H][C@]1(c2n[nH]c(=O)c3ccccc32)C[C@]2(C[C@@H](NC(=O)c3cn4cccc(C)c4n3)C2)C1 (stereo partly drawn) [Example 362, 8-methyl-N-((aR)-6-(4-oxo-3,4-dihydrophthalazin-1-yl)spiro[3.3]heptan-2-yl)imidazo[1,2-a]pyridine-2-carboxamide] | 15.1 to 100
[H][C@]1(c2n[nH]c(=O)c3ccccc32)C[C@]2(C[C@@H](NC(=O)c3cn4cc(Br)ccc4n3)C2)C1 (stereo partly drawn) [Example 363, 6-bromo-N-((aR)-6-(4-oxo-3,4-dihydrophthalazin-1-yl)spiro[3.3]heptan-2-yl)imidazo[1,2-a]pyridine-2-carboxamide] | 15.1 to 100
[H][C@]1(c2n[nH]c(=O)c3ccccc32)C[C@]2(C[C@@H](NC(=O)c3cn(C)c4ccccc34)C2)C1 (stereo partly drawn) [Example 364, 1-methyl-N-((aR)-6-(4-oxo-3,4-dihydrophthalazin-1-yl)spiro[3.3]heptan-2-yl)-1H-indole-3-carboxamide] | 5.1 to 15
[H][C@]1(c2n[nH]c(=O)c3ccccc32)C[C@]2(C[C@@H](NC(=O)c3nc(-c4ccncc4)sc3C)C2)C1 (stereo partly drawn) [Example 365, 5-methyl-N-((aR)-6-(4-oxo-3,4-dihydrophthalazin-1-yl)spiro[3.3]heptan-2-yl)-2-(pyridin-4-yl)thiazole-4-carboxamide] | 15.1 to 100
[H][C@]1(c2n[nH]c(=O)c3ccccc32)C[C@]2(C[C@@H](NC(=O)c3ccc4cnn(C)c4c3)C2)C1 (stereo partly drawn) [Example 366, 1-methyl-N-((aR)-6-(4-oxo-3,4-dihydrophthalazin-1-yl)spiro[3.3]heptan-2-yl)-1H-indazole-6-carboxamide] | 5.1 to 15
[H][C@]1(c2n[nH]c(=O)c3ccccc32)C[C@]2(C[C@@H](NC(=O)c3ccc4ccn(C)c4c3)C2)C1 (stereo partly drawn) [Example 367, 1-methyl-N-((aR)-6-(4-oxo-3,4-dihydrophthalazin-1-yl)spiro[3.3]heptan-2-yl)-1H-indole-6-carboxamide] | 5.1 to 15
[H][C@]1(c2n[nH]c(=O)c3ccccc32)C[C@]2(C[C@@H](NC(=O)c3ccc4c(ccn4C)c3)C2)C1 (stereo partly drawn) [Example 368, 1-methyl-N-((aR)-6-(4-oxo-3,4-dihydrophthalazin-1-yl)spiro[3.3]heptan-2-yl)-1H-indole-5-carboxamide] | 5.1 to 15
[H][C@]1(c2n[nH]c(=O)c3ccccc32)C[C@]2(C[C@@H](NC(=O)c3ccc(N4CCCC4)cn3)C2)C1 (stereo partly drawn) [Example 369, N-((aR)-6-(4-oxo-3,4-dihydrophthalazin-1-yl)spiro[3.3]heptan-2-yl)-5-(pyrrolidin-1-yl)picolinamide] | 15.1 to 100
[H][C@]1(c2n[nH]c(=O)c3ccccc32)C[C@]2(C[C@@H](NC(=O)c3ccc(C(F)(F)F)cn3)C2)C1 (stereo partly drawn) [Example 370, N-((aR)-6-(4-oxo-3,4-dihydrophthalazin-1-yl)spiro[3.3]heptan-2-yl)-5-(trifluoromethyl) picolinamide] | 5.1 to 15
[H][C@]1(c2n[nH]c(=O)c3ccccc32)C[C@]2(C[C@@H](NC(=O)c3ccc(C#N)c(C)n3)C2)C1 (stereo partly drawn) [Example 371, 5-cyano-6-methyl-N-((aR)-6-(4-oxo-3,4-dihydrophthalazin-1-yl)spiro[3.3]heptan-2-yl)picolinamide] | 15.1 to 100
[H][C@]1(c2n[nH]c(=O)c3ccccc32)C[C@]2(C[C@@H](NC(=O)c3[nH]c4c(OC)cccc4c3C)C2)C1 (stereo partly drawn) [Example 372, 7-methoxy-3-methyl-N-((aR)-6-(4-oxo-3,4-dihydrophthalazin-1-yl)spiro[3.3]heptan-2-yl)-1H-indole-2-carboxamide] | 15.1 to 100
[H][C@]1(c2n[nH]c(=O)c3ccccc32)C[C@]2(C[C@@H](NC(=O)c3ccc4c(cnn4C)c3)C2)C1 (stereo partly drawn) [Example 373, 1-methyl-N-((aR)-6-(4-oxo-3,4-dihydrophthalazin-1-yl)spiro[3.3]heptan-2-yl)-1H-indazole-5-carboxamide] | 15.1 to 100
[H][C@]1(c2n[nH]c(=O)c3ccccc32)C[C@]2(C[C@@H](NC(=O)c3cn4ccc(Br)cc4n3)C2)C1 (stereo partly drawn) [Example 374, 7-bromo-N-((aR)-6-(4-oxo-3,4-dihydrophthalazin-1-yl)spiro[3.3]heptan-2-yl)imidazo[1,2-a]pyridine-2-carboxamide] | 15.1 to 100
[H][C@]1(c2n[nH]c(=O)c3ccccc32)C[C@]2(C[C@@H](NC(=O)c3ccc(Br)cn3)C2)C1 (stereo partly drawn) [Example 375, 5-bromo-N-((aR)-6-(4-oxo-3,4-dihydrophthalazin-1-yl)spiro[3.3]heptan-2-yl)picolinamide] | 15.1 to 100
[H][C@]1(c2n[nH]c(=O)c3ccccc32)C[C@]2(C[C@@H](NC(=O)c3cn4ccccc4n3)C2)C1 (stereo partly drawn) [Example 377, N-((aR)-6-(4-oxo-3,4-dihydrophthalazin-1-yl)spiro[3.3]heptan-2-yl)imidazo[1,2-a]pyridine-2-carboxamide] | 15.1 to 100
[H][C@]1(c2n[nH]c(=O)c3ccccc32)C[C@]2(C[C@@H](NC(=O)c3cnc4cc(N5CCN(C)CC5)ccn34)C2)C1 (some centres unmarked) [Example 378] | 0.2 to 2
